Measured values: US8288421B2, “Phenylaminopyridines” (Basilea Pharmaceutica AG, priority 2004, dated 2012)

Tests used:
DOHH2 = assay: Mitochondrial membrane potential (JC-1); type: cell-based; settings: DOHH2, 48 h read-out
Method: (§1) This assay is performed in 96 well tissue culture plates. Appropriate number of cells (adherent cells: 3-5*10^3, suspension cells: 8-10*10^3) are being seeded out in 80 μl complete medium. Adherent cells are incubated for 24 h for proper spreading out before addition of test compounds while suspension cells are immediately treated with test compounds after seeding out. The test compounds are added in 20 μal complete medium containing max 5% DMSO. […] The assay plates are then further incubated for 30 minutes and subsequently analyzed with a standard inverted fluorescence microscope by using the FITC and TRITC filters.
(§2) The scores A, B, C and D are explained at the end of the Table.

MRC5 [1] = assay: Hoechst 33342 nuclear staining; type: cell-based; settings: MRC5, 48 h read-out
Method: as §1, with “μl” for “μal”, “DMSO. The final compound concentrations in the assays are in the range of 0.001 μM-10 μM.” for “DMSO.”, “microscope.” for “microscope by using the FITC and TRITC filters.”
(§3) The readout allows the determination of the fraction of apoptotic nuclei as well as other morphological criteria specific for apoptosis as a function of the treatment. The scores A, B, C and D are explained at the end of the Table.

Jily [2] = assay: Hoechst 33342 nuclear staining; type: cell-based; settings: 48 h read-out
Method: as §1, with “μl” for “μal”, “DMSO. The final compound concentrations in the assays are in the range of 0.001 μM-10 μM.” for “DMSO.”, “microscope.” for “microscope by using the FITC and TRITC filters.”
as §3

HT1080 = assay: MTS proliferation assay; type: cell-based, human; settings: HT1080, 72 h read-out
Method: (§4) The assay is performed in 96 well tissue culture plates. The cells (range: 1.5*10^3-10^4) are seeded out in 80 μl complete medium 24 h prior to compound treatment. The test compounds are added in 20 μl complete medium containing max 5% DMSO. The final compound concentrations in the assays are in the range of 0.001 μM-10 μM. The assay plates are incubated for 72 h at culture conditions. The MTS reagent is prepared according to the manufacturer's protocol (Promega G1111). 20 μl MTS reagent are added to each well, the assay plates are quickly spun and incubated for another 3 h at culture conditions. Subsequently, the plates are shortly shaked and absorption measured with a microplate-reader at 492 nm. The scores A, B, C and D are explained at the end of the Table.

Jurkat [3] = assay: MTS proliferation assay; type: cell-based, human; settings: 72 h read-out
Method: as §4

HeLa [4] = assay: MTS proliferation assay; type: cell-based, human; settings: 72 h read-out
Method: as §4

Jurkat [5] = assay: Mitochondrial membrane potential (JC-1); type: cell-based, human; settings: 48 h read-out
Method: as §1, §2

PBL [6] = assay: Mitochondrial membrane potential (JC-1); type: cell-based, human; settings: 48 h read-out
Method: as §1, §2

MCF7 = assay: Mitochondrial membrane potential (JC-1); type: cell-based, human; settings: MCF7, 48 h read-out
Method: as §1, §2

HeLa [7] = assay: Mitochondrial membrane potential (JC-1); type: cell-based, human; settings: 48 h read-out
Method: as §1, §2

MRC5 [8] = assay: MTS proliferation assay; type: cell-based; settings: MRC5, 72 h read-out
Method: as §4

Jily [9] = assay: MTS proliferation assay; type: cell-based; settings: 72 h read-out
Method: as §4

Jurkat [10] = assay: Hoechst 33342 nuclear staining; type: cell-based, human; settings: 48 h read-out
Method: as §1, with “μl” for “μal”, “DMSO. The final compound concentrations in the assays are in the range of 0.001 μM-10 μM.” for “DMSO.”, “microscope.” for “microscope by using the FITC and TRITC filters.”
as §3

PBL [11] = assay: Hoechst 33342 nuclear staining; type: cell-based, human; settings: 48 h read-out
Method: as §1, with “μl” for “μal”, “DMSO. The final compound concentrations in the assays are in the range of 0.001 μM-10 μM.” for “DMSO.”, “microscope.” for “microscope by using the FITC and TRITC filters.”
as §3

HeLa [12] = assay: Hoechst 33342 nuclear staining; type: cell-based, human; settings: 48 h read-out
Method: as §1, with “μl” for “μal”, “DMSO. The final compound concentrations in the assays are in the range of 0.001 μM-10 μM.” for “DMSO.”, “microscope.” for “microscope by using the FITC and TRITC filters.”
as §3

EC50 (DOHH2) [nM] | EC50 (Jily [2]) [nM] | IC50 (HT1080) [nM] | IC50 (Jurkat [3]) [nM] | IC50 (HeLa [4]) [nM] | EC50 (Jurkat [5]) [nM] | EC50 (PBL [6]) [nM] | EC50 (MCF7) [nM] | EC50 (HeLa [7]) [nM] | EC50 (Jurkat [10]) [nM] | EC50 (PBL [11]) [nM] | EC50 (HeLa [12]) [nM] | SMILES | EC50 (MRC5 [1]) [nM] | IC50 (MRC5 [8]) [nM] | IC50 (Jily [9]) [nM]
10 to 100 | 10 to 100 | 10 to 100 | 10 to 100 | 10 to 100 | 10 to 100 | > 1000 | 100 to 1000 | 10 to 100 | 10 to 100 | > 1000 | 10 to 100 | COc1ccc(Nc2cncc(-c3cccc(NC(=O)c4cccs4)c3)c2)cc1 [Example 22] | 100 to 1000 | 100 to 1000 | 10 to 100
100 to 1000 | 100 to 1000 | 100 to 1000 | 100 to 1000 | 100 to 1000 | 100 to 1000 | > 1000 | 100 to 1000 | 100 to 1000 | 100 to 1000 | > 1000 | 100 to 1000 | COc1ccc(Nc2cncc(-c3cccc(NS(=O)(=O)c4ccccc4)c3)c2)cc1 [Example 23] | > 1000 | 100 to 1000 | 100 to 1000
> 1000 | > 1000 | > 1000 | 100 to 1000 | > 1000 | 100 to 1000 | > 1000 | > 1000 | > 1000 | 100 to 1000 | > 1000 | > 1000 | COc1ccc(Nc2cncc(-c3cccc(NC(=O)c4cccc(OC)c4)c3)c2)cc1 [Example 25] | > 1000 | > 1000 | 100 to 1000
100 to 1000 | 100 to 1000 | 100 to 1000 | 10 to 100 | 100 to 1000 | 100 to 1000 | > 1000 | > 1000 | > 1000 | 10 to 100 | > 1000 | 100 to 1000 | COc1ccc(Nc2cncc(-c3cccc(NC(=O)C(C)C)c3)c2)cc1 [Example 26] | > 1000 | 100 to 1000 | 10 to 100
> 1000 | 100 to 1000 | > 1000 | 100 to 1000 | > 1000 | 100 to 1000 | > 1000 | > 1000 | > 1000 | 100 to 1000 | > 1000 | 100 to 1000 | COc1ccc(Nc2cncc(-c3cccc(NC(=O)c4ccccc4)c3)c2)cc1OC [Example 29] | > 1000 | > 1000 | 100 to 1000
> 1000 | 100 to 1000 | > 1000 | 100 to 1000 | > 1000 | > 1000 | > 1000 | > 1000 | > 1000 | 100 to 1000 | > 1000 | > 1000 | COc1ccc(Nc2cncc(-c3cccc(NC(=O)c4ccccc4)c3)c2)c(OC)c1 [Example 30] | > 1000 | > 1000 | 100 to 1000

SMILES | EC50 (DOHH2) [nM] | EC50 (Jily [2]) [nM] | IC50 (HT1080) [nM] | IC50 (Jurkat [3]) [nM] | IC50 (HeLa [4]) [nM] | EC50 (Jurkat [5]) [nM] | EC50 (PBL [6]) [nM] | EC50 (MCF7) [nM] | EC50 (HeLa [7]) [nM] | EC50 (Jurkat [10]) [nM] | EC50 (PBL [11]) [nM] | EC50 (HeLa [12]) [nM] | EC50 (MRC5 [1]) [nM] | IC50 (MRC5 [8]) [nM] | IC50 (Jily [9]) [nM]
O=C(Nc1cccc(-c2cncc(Nc3ccc(OCc4ccccc4)cc3)c2)c1)c1ccccc1 [Example 27] | > 1000 | > 1000 | > 1000 | > 1000 | > 1000 | > 1000 | > 1000 | > 1000 | > 1000 | > 1000 | > 1000 | > 1000 | > 1000 | > 1000 | > 1000
